According to US5827562A, “Sweetener salts” (Holland Sweetener Company V.o.F., priority 1995, dated 1998):
Several values for one entry are separate records, joined by “and”; a condition that tells them apart may be missing. Equal entries are not always repeated. Structures can show the parent of a compound that is named as a salt. Where two headings read alike, the source gives them in different places. Peptide text beside a SMILES is read from it.

What was measured:
[1] = Thermal stability test: open dish in thermostatted oven, decomposition products (DKP, AP) by hplc; type: physicochemical; conditions: for DKP content: initial content, relative to dry product
Protocol: d. Thermal stability tests were conducted by allowing samples of a relevant product to stand for the indicated times in an open dish placed in a thermostatted oven at the relevant temperature, and to determine, via hplc, the concentrations of possible decomposition products such as, in the case of analysis of aspartame salts, diketopiperazine (DKP) and aspartyl-phenylalanine (AP) in the initial and the final sample.
(§1) A number of the products obtained in the above-mentioned experiments and comparative experiments were subjected to further analysis of characterization. The following values were determined: (a) thermal stability (at 70° C. and/or at 120° C.) and (b) dissolution rate. By way of comparison the same was done for a number of reference substances. As regards the thermal stability of the APM containing substances, attention was paid in particular to the increase in the diketopiperazine decomposition product (DKP) in wt.% relative to the dry product.

[2] = Dissolution rate, spectrophotometric dissolution curve in pH 5.0 buffer; type: physicochemical; conditions: 23° C.
Protocol: c. The dissolution rate was found through spectrophotometric determination of the dissolution curve, by introducing 0.1 wt.% of the product (or a screen fraction thereof at 23° C. into a pH 5.0 buffer (Merck titrisol, pH 5.0, in 1 liter of Milli-Q water) whilst stirring continuously.
as §1, with “product. It was also established that the salts included in the table are not hygroscopic.” for “product.”

[3] = Moisture content, Karl-Fischer water determination; type: physicochemical; conditions: dried product
Protocol: b. The moisture content of the products obtained was determined by means of the Karl-Fischer water determination.

[4] = usual moisture content of the individual component; cited from earlier work
[5] = general statement, aspartame or its derivatives; cited from earlier work
Solubility in water = type: physicochemical; conditions: aqueous reaction medium

Compound	Increase in DKP content ([1]; 1 hour, 120° C.)	Increase in DKP content ([1]; 70 hours, 70° C.)	DKP content [1]	moisture content [3]	moisture content ([3]; table 1)	also measured
COC(=O)[C@H](Cc1ccccc1)NC(=O)[C@@H](N)CC(=O)O.O=C1NS(=O)(=O)c2ccccc21 [exp. 1a., 1:1 salt of APM and SacH] (H-Asp-Phe-OMe)	0 wt. %	0 wt. %	0.01 wt. %	0.03%	0.03 wt. %	Dissolution rate ([2]; 0.1 wt.% product, stirring): 1 min
O=C1NS(=O)(=O)c2ccccc21 [saccharin-Na, sodium 2,3-dihydro-3-oxobenzisosulfonazole]						moisture content [4]: up to 15%
CC1=CC(=O)NS(=O)(=O)O1 [AceH]						thermal stability, observation in words ([1]; 1 hour, 120° C.): yellow/orange colour; strong degradation; hydrogen sulphide odour
O=S(=O)(O)NC1CCCCC1 [cyclamate-Ca]						moisture content [4]: up to 9%
COC(=O)[C@H](Cc1ccccc1)NC(=O)[C@@H](N)CC(=O)O [APM powder] (H-Asp-Phe-OMe)	2.34 wt. %	0.20 wt. %	0.04 wt. %		2.60 wt. %	Dissolution rate ([2]; 0.1 wt.% product, stirring): 2 to 3 min
COC(=O)[C@H](Cc1ccccc1)NC(=O)[C@@H](N)CC(=O)O.O=C1NS(=O)(=O)c2ccccc21 [comp. exp. 1A, 1:1 salt of APM and SacH] (H-Asp-Phe-OMe)		0 wt. %	0.53 wt. %			
CC1=CC(=O)NS(=O)(=O)O1.COC(=O)[C@H](Cc1ccccc1)NC(=O)[C@@H](N)CC(=O)O [Experiment 6, 1:1 salt of APM and acesulfamic acid] (H-Asp-Phe-OMe)				0.15%		
CC1=CC(=O)NS(=O)(=O)O1.COC(=O)[C@H](Cc1ccccc1)NC(=O)[C@@H](N)CC(=O)O [comp. exp. 1C, 1:1 salt of APM and acesulfamic acid] (H-Asp-Phe-OMe)	2.04 wt. %	1.27 wt. %	0.35 wt. %	0.76%	0.76 wt. %	thermal stability, observation in words ([1]; 1 hour, 120° C.): yellow/yellowbrown colour, with some degradation of the Ace part; thermal stability, observation in words ([1]; 70 hours, 70° C.): pale yellow; with hplc some degradation of the Ace part
CC1=CC(=O)NS(=O)(=O)O1.COC(=O)[C@H](Cc1ccccc1)NC(=O)[C@@H](N)CC(=O)O [Exp. 2l, 1:1 salt of APM and acesulfamic acid] (H-Asp-Phe-OMe)				0.07%		
CC1=CC(=O)NS(=O)(=O)O1.COC(=O)[C@H](Cc1ccccc1)NC(=O)[C@@H](N)CC(=O)O [exp. 4a., 1:1 salt of APM and acesulfamic acid] (H-Asp-Phe-OMe)	0 wt. %		0.01 wt. %	0.12%	0.12 wt. %	thermal stability, observation in words ([1]; 1 hour, 120° C.): fully stable, white product; Dissolution rate ([2]; 0.1 wt.% product, stirring): 1 min
CC1=CC(=O)NS(=O)(=O)O1.COC(=O)[C@H](Cc1ccccc1)NC(=O)[C@@H](N)CC(=O)O [Exp. 5a., 1:1 salt of APM and acesulfamic acid] (H-Asp-Phe-OMe)				0.09%		
CC1=CC(=O)NS(=O)(=O)O1.COC(=O)[C@H](Cc1ccccc1)NC(=O)[C@@H](N)CC(=O)O [Exp. 3a, 1:1 salt of APM and acesulfamic acid] (H-Asp-Phe-OMe)				2.5%		
COC(=O)[C@H](Cc1ccccc1)NC(=O)[C@@H](N)CC(=O)O [APM granulate, reference compound] (H-Asp-Phe-OMe)	2.09 wt. %	0.75 wt. %	0.18 wt. %		2.30 wt. %	Dissolution rate ([2]; 200-700 μm fraction, 0.1 wt.%): 7 min; Dissolution rate ([2]; <200 μm fraction, 0.1 wt.%): 4 min
O=C1NS(=O)(=O)c2ccccc21 [SacH, 3-oxo-2,3-dihydro-1,2-benzisothiazole-1,1-dioxide]						thermal stability, observation in words ([1]; 1 hour, 120° C.): stable
COC(=O)C(Cc1ccccc1)NC(=O)C(N)CC(=O)O.O=C1NS(=O)(=O)c2ccccc21 (stereo not drawn) [Exp. 3b, 1:1 salt of APM and saccharinate] (H-Asp-Phe-OMe; configuration not given here)				0.27%		
COC(=O)C(Cc1ccccc1)NC(=O)C(N)CC(=O)O.O=C1NS(=O)(=O)c2ccccc21 (stereo not drawn) [Exp. 4b., 1:1 salt of APM and saccharin] (H-Asp-Phe-OMe; configuration not given here)				0.04% and 0.05%		
CC1=CC(=O)NS(=O)(=O)O1.COC(=O)[C@H](Cc1ccccc1)NC(=O)[C@@H](N)CC(=O)O [Exp. 2k, 1:1 salt of APM and acesulfamic acid] (H-Asp-Phe-OMe)				0.10%		
COC(=O)[C@H](Cc1ccccc1)NC(=O)[C@@H](N)CC(=O)O.O=C1NS(=O)(=O)c2ccccc21 [comp. exp. 1B, 1:1 salt of APM and SacH] (H-Asp-Phe-OMe)		0 wt. %	0.21 wt. %			
CC1=CC(=O)NS(=O)(=O)O1.COC(=O)[C@H](Cc1ccccc1)NC(=O)[C@@H](N)CC(=O)O [exp. 4c., 1:1 salt of APM and acesulfamic acid] (H-Asp-Phe-OMe)	0 wt. %	0 wt. %	0.01 wt. %	0.04%	0.04 wt. %	thermal stability, observation in words ([1]; 1 hour, 120° C.): fully stable, white product; Dissolution rate ([2]; 0.1 wt.% product, stirring): 1 min
COC(=O)[C@H](Cc1ccccc1)NC(=O)[C@@H](N)CC(=O)O [APM, Δ-L-aspartyl-L-phenylalanine methyl ester] (H-Asp-Phe-OMe)						thermal stability [5]: relatively unfavorable thermal stability
COC(=O)[C@H](Cc1ccccc1)NC(=O)[C@@H](N)CC(=O)O [exp. 1b., 1:1 salt of APM and CycH] (H-Asp-Phe-OMe)	0.14 wt. %		0.18 wt. %	0.16%	0.16 wt. %	solubility of the sweetening salt (Solubility in water): high solubility
CC1=CC(=O)NS(=O)(=O)O1.COC(=O)[C@H](Cc1ccccc1)NC(=O)[C@@H](N)CC(=O)O [exp. 2a., 1:1 salt of APM and acesulfamic acid] (H-Asp-Phe-OMe)	0 wt. %	0 wt. %	0.01 wt. %	0.11%	0.11 wt. %	Dissolution rate ([2]; 0.1 wt.% product, stirring): 1 min
CC1=CC(=O)NS(=O)(=O)O1.COC(=O)[C@H](Cc1ccccc1)NC(=O)[C@@H](N)CC(=O)O [comp. exp. 1D, 1:1 salt of APM and acesulfamic acid] (H-Asp-Phe-OMe)	2.18 wt. %	0.52 wt. %	0.32 wt. %	0.89%	0.89 wt. %	thermal stability, observation in words ([1]; 1 hour, 120° C.): yellow/yellowbrown colour, with some degradation of the Ace part; thermal stability, observation in words ([1]; 70 hours, 70° C.): pale yellow; with hplc some degradation of the Ace part
